# Counter-ions that a name gives are not always drawn.
# Biological target: T1, dopamine D2 receptor (Rattus norvegicus, UniProt P61169)
# T1 construct: Striata from rats (Sprague Dawley, Charles River) were homogenized immediately after removal; from tissue; host or cells: rat striatum (Sprague Dawley, Charles River), membranes
# Assay: Receptor binding assay: affinity for the dopamine D2 receptor (3H-ADTN displacement, rat striatal membranes)
# Parameters: species or system rat (Sprague Dawley)
# Conditions: not given
# Procedure: The effects of the novel compounds can be shown in the receptor binding assay as follows:
# Striata from rats (Sprague Dawley, Charles River) were homogenized immediately after removal in 0.32M sucrose solution (0° C.). The homogenate was filtered through gauze, the filtrate was centrifuged at 1000 xg (5 min at 4° C.) and the resulting supernatant was centrifuged at 40000 xg (4° C., 10 min). The residue (membranes) was taken up in incubation buffer (50 mM tris-HCl, 1 mM MgCl2 and 0.1% ascorbic acid, pH 7.4) and incubated at 37° C. for 20 min. The residue was subsequently washed 2×with incubation buffer by resuspension and recentrifugation. The membranes were frozen in portions in liquid nitrogen.
# The assay mixtures (1 ml) were composed of membranes (380 μg of protein), 1 nM ^3 H-ADTN (NEN, Dreieich Germany, specific radioactivity 1.4 TBq/mmol) and 0.1 μM SCH 23390 (total binding) or a) with the addition of 50 nM spiperone (non-specific binding) or b) with-test substance. The mixtures were prepared in triplicate.
# After the incubation (40 min at 25° C.) the mixtures were filtered through glass fiber filters (Whatman GF/B) and briefly washed with ice-cold washing buffer (Tris-HCl pH 7.4). The radioactivity retained on the filters was determined by liquid scintillation counting. The non-specific binding comprised about 40-50% of the total binding.
# The evaluation of the competition plots and the determination of the dissociation constant took place by iterative non-linear regression analysis based on the "ligand" program (Muson and Rodbard: Anal. Biochem. 107 (1980) 220).
# T1 sequence (P61169 whole entry): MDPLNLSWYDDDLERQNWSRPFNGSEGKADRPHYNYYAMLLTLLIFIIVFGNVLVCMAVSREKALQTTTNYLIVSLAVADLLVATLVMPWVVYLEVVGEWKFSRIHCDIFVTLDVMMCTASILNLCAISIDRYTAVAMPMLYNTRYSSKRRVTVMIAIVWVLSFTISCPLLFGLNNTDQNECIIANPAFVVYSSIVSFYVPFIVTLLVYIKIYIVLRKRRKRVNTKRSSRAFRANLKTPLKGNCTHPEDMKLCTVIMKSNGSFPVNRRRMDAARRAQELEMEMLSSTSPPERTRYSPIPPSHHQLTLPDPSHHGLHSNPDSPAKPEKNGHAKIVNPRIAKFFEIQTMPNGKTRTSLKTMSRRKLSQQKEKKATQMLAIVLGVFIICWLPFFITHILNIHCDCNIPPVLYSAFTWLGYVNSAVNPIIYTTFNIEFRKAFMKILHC
row,Structure (SMILES),Ki [µM]
1,"Cc1[nH]c(=O)sc1CCCN1CC=C(c2ccccc2)CC1 [Example 1, 4-Methyl-5-[3-(1,2,3,6-tetrahydro-4-phenylpyridyl)propyl]-thiazolin-2-one hydrochloride]",0.008

# Same assay, conditions: rat striatal membranes (380 μg protein), 1 nM 3H-ADTN, 0.1 μM SCH 23390, 40 min at 25° C., non-specific: 50 nM spiperone; read-out: Affinity of the test substances for the dopamine D2 receptor, Ki
row,Structure (SMILES),Ki [µM]
1,"Cc1[nH]c(=O)sc1CCCN1CCN(c2cccc(C(F)(F)F)c2)CC1 [Example 13, 4-Methyl-5-[3-(4-(3-trifluoromethylphenyl)piperazinyl)propyl]thiazolin-2-one hydrochloride]",0.045
2,"CCOc1ccccc1N1CCN(CCCc2sc(=O)[nH]c2C)CC1 [Example 14, 4-Methyl-5-[3-(4-(2-ethoxyphenyl)piperazinyl)propyl]thiazolin-2-one dihydrochloride]",0.006
3,"Cc1c(CCCN2CCN(c3ccccc3)CC2)sc(=O)n1C [Example 17, 3,4-Dimethyl-5-[3-(4-phenylpiperazinyl)propyl]thiazolin-2-one dihydrochloride]",0.04

# Other lines, results leading:
row,Ki [µM],Structure (SMILES)
1,0.025,"CCc1ccccc1N1CCN(CCCc2sc(=O)[nH]c2C)CC1 [Example 10, 4-Methyl-5-[3-(4-(2-ethylphenyl)piperazinyl)propyl]thiazolin-2-one dihydrochloride]"
2,0.015,"Cc1[nH]c(=O)sc1CCCN1CCN(c2ccccn2)CC1 [Example 2, 4-Methyl-5-[3-(4-pyrid-2-ylpiperazinyl)propyl]thiazolin-2-one dihydrochloride]"
3,0.012,"Cc1[nH]c(=O)sc1CCCN1CCN(c2ncccn2)CC1 [Example 7, 4-Methyl-5-[3-(4-pyrimidin-2-ylpiperazinyl)propyl]thiazolin-2-one dihydrochloride]"
4,0.006,"CSc1ccccc1N1CCN(CCCc2sc(=O)[nH]c2C)CC1 [Example 12, 4-Methyl-5-[3-(4-(2-methylthiophenyl)piperazinyl)propyl]thiazolin-2-onehydrochloride]"
